Reference: the NIST ThermoML archive (doi:10.1021/je7006549)

Assay: mn = molality of the nth substance listed, in mol/kg
Settings: 101 kPa, Liquid

CC1=CC(=O)c2ccccc2C1=O [2-methyl-1,4-naphthalenedione] + c1ccccc1
Settings | mass density [kg/m3] | viscosity [mPa·s]
303.15 K, m1 = 0.0334 | 869.4 | 0.5788
303.15 K, m1 = 0.0889 | 871.8 | 0.5842
303.15 K, m1 = 0.1332 | 873.7 | 0.588
303.15 K, m1 = 0.1778 | 875.6 | 0.5927
303.15 K, m1 = 0.2215 | 877.5 | 0.6006
303.15 K, m1 = 0.2681 | 879.5 | 0.6063
308.15 K, m1 = 0.0334 | 863.6 | 0.5408
308.15 K, m1 = 0.0889 | 866 | 0.5443
308.15 K, m1 = 0.1332 | 867.9 | 0.5484
308.15 K, m1 = 0.1778 | 869.8 | 0.5519
308.15 K, m1 = 0.2215 | 871.7 | 0.5598
308.15 K, m1 = 0.2681 | 873.7 | 0.5667
313.15 K, m1 = 0.0334 | 858.4 | 0.5057
313.15 K, m1 = 0.0889 | 860.8 | 0.5096
313.15 K, m1 = 0.1332 | 862.7 | 0.5142
313.15 K, m1 = 0.1778 | 864.6 | 0.5189
313.15 K, m1 = 0.2215 | 866.5 | 0.5242
313.15 K, m1 = 0.2681 | 868.5 | 0.5309
318.15 K, m1 = 0.0334 | 853 | 0.4782
318.15 K, m1 = 0.0889 | 855.4 | 0.4811
318.15 K, m1 = 0.1332 | 857.3 | 0.4847
318.15 K, m1 = 0.1778 | 859.2 | 0.4893
318.15 K, m1 = 0.2215 | 861.1 | 0.4945
318.15 K, m1 = 0.2681 | 863.1 | 0.5
323.15 K, m1 = 0.0334 | 847.7 | 0.4467
323.15 K, m1 = 0.0889 | 850.1 | 0.4489
323.15 K, m1 = 0.1332 | 852 | 0.4528
323.15 K, m1 = 0.1778 | 853.9 | 0.4566
323.15 K, m1 = 0.2215 | 855.8 | 0.461
323.15 K, m1 = 0.2681 | 857.8 | 0.4647
328.15 K, m1 = 0.0334 | 842.1 | 0.4206
328.15 K, m1 = 0.0889 | 844.5 | 0.4235
328.15 K, m1 = 0.1332 | 846.4 | 0.4266
328.15 K, m1 = 0.1778 | 848.3 | 0.4318
328.15 K, m1 = 0.2215 | 850.2 | 0.4347
328.15 K, m1 = 0.2681 | 852.2 | 0.4388
333.15 K, m1 = 0.0334 | 836.8 | 0.3946
333.15 K, m1 = 0.0889 | 839.2 | 0.3967
333.15 K, m1 = 0.1332 | 841.1 | 0.4003
333.15 K, m1 = 0.1778 | 843 | 0.4069
333.15 K, m1 = 0.2215 | 844.9 | 0.4084
333.15 K, m1 = 0.2681 | 846.9 | 0.4121
